In patent publication US20130281544A1, “HEPATOPROTECTANT ACTIVITY OF GARCINOL” (priority 2010, published 2013):

Tested on: paracetamol induced liver damage in rats
Test: Serum enzymes ALT, AST, ALP in paracetamol (APAP) induced liver damage
Type: in vivo, Male Wistar Rats
Conditions: for ALP percent change / ALT percent change / AST percent change / ALP / ALT / AST: serum; for ALP / ALT / AST: Mean ± SE
Description: Doses of Garcinol (GC) used for the study: 1.25, 2.5, 5, 10 mg/kg p.o.
Standard drug: Silymarin (50 mg/kg) p.o.
Experimental animals orally received paracetamol (400 mg/kg body weight) for seven days. The animals from drug treated group received 400 mg/kg body weight of paracetamol dissolved in water orally along with graded doses of test drug Garcinol for seven days. The standard group animals received 50 mg/kg body weight of standard drug silymarin and 400 mg/kg body weight of paracetamol for seven days and served as standard control. [N. Kanchana and A. Mohamed Sadiq, Hepatoprotective effect of Plumbago zeylanica on paracetamol induced liver toxicity in rats, Int J Pharm Pharm Sci, Vol 3, Issue 1, 151-154 (2011)].
Blood was collected from the retro-orbital plexus of experimental animals and no anti-coagulant was added. Blood was made to stand at room temperature for 1 hour. It was then centrifuged and clear serum was separated. The serum was then stored for analysis. Reference: (Magari et al., 2004).
(ASPARTATE AMINOTRANSFERASE and ALANINE AMINOTRANSFERASE), Reference: Ritman S, Frankel S, (1957). A colorimeteric method for the determination of serum glutamic oxaloacetic and glutamic pyruvic transaminases. American Journal of Clinical Pathology; 28: 56-63.
0.2 ml of serum, collected from test and control samples, was mixed with 1.0 ml of buffer solution and incubated for 60 min at 37° C. in a water bath. After the addition of 1.0 ml of chromogen solution, the samples were kept at room temperature for 20 minutes for the reaction to proceed and 10 ml NaOH was added. The optical density was red at 546 nm after 5 min. To the blank, serum was added after the addition of chromogen solution.
(ALKALINE PHOSPHATASE), Reference: Klaus Walter and Schutt C. (1974). Acid and alkaline phosphatase in serum. In: Methods of Enzymatic Analysis. Eds. Hans Ulrich Bergmeyer, Verlag ChemieWeinheim, Academic press, Inc. New York, 2nd Edition, Vol. 2, pp. 855-64.
Alkaline phosphatase activity measurement is based on the ability of the enzyme to hydrolyze p-nitrophenol phosphate under alkaline conditions. The cleaved product p-nitrophenol is yellow in alkaline solution and is measured at 400-420 nm (Klaus and Schutt, 1974). 2.0 ml of buffered substrate was taken in the tubes ‘Test’ ‘Control’ and ‘Blank’ followed by addition of serum and distilled water (0.1 ml) in ‘Test’ and ‘Blank’ respectively and incubated in a water bath for 30 minutes at 25° C. After incubation sodium hydroxide was added (0.25 N, 2 ml) to all the tubes, which was followed by serum (0.1 ml) to the tubes marked ‘Control’. The yellow colour formed was measured spectrophotometrically against blank at 410 nm. […]

In the case of `C=C(C)[C@@H](CC=C(C)C)C[C@@]12C[C@@H](CC=C(C)C)C(C)(C)[C@@](CC=C(C)C)(C(=O)C(C(=O)c3ccc(O)c(O)c3)=C1O)C2=O` [Garcinol], the “Average Protection” value (1.25 mg/kg p.o.) is reported as 13.06%, the “Average Protection” value (2.50 mg/kg p.o.) is reported as 21.51% and the “Average Protection” value (5.00 mg/kg p.o.) is reported as 36.31%. The “Average Protection” value (10.00 mg/kg p.o.) was 33.22%, the ALP percent change (1.25 mg/kg p.o.) was “(8.21) %” and the ALT percent change (1.25 mg/kg p.o.) was “(21.69) %”. The AST percent change (1.25 mg/kg p.o.) was “(9.30) %”, the ALP (1.25 mg/kg p.o.) was 37.21 ± 3.44 μmol min/lt and the ALT (1.25 mg/kg p.o.) was 862.97 ± 53.38 μmol min/lt. The AST (1.25 mg/kg p.o.) was 761.61 ± 43.96 μmol min/lt, the ALP percent change (2.50 mg/kg p.o.) was “(15.44) %” and the ALT percent change (2.50 mg/kg p.o.) was “(26.62) %”. For the same molecule, the AST percent change (2.50 mg/kg p.o.) was “(22.49) %”, the ALP (2.50 mg/kg p.o.) was 34.28 ± 1.98 μmol min/lt and the ALT (2.50 mg/kg p.o.) was 808.64 ± 38.55 μmol min/lt. The AST (2.50 mg/kg p.o.) was 650.88 ± 35.84 μmol min/lt, the ALP percent change (5.00 mg/kg p.o.) was “(24.17) %” and the ALT percent change (5.00 mg/kg p.o.) was “(39.96) %”. The AST percent change (5.00 mg/kg p.o.) was “(44.81) %”, the ALP (5.00 mg/kg p.o.) was 30.74 ± 2.05 μmol min/lt and the ALT (5.00 mg/kg p.o.) was 661.67 ± 51.40 μmol min/lt. For the same molecule, the AST (5.00 mg/kg p.o.) was 463.41 ± 38.56 μmol min/lt, the ALP percent change (10.00 mg/kg p.o.) was “(17.11) %” and the ALT percent change (10.00 mg/kg p.o.) was “(46.44) %”. For the same molecule, the AST percent change (10.00 mg/kg p.o.) was “(36.12) %”, the ALP (10.00 mg/kg p.o.) was 33.60 ± 1.93 μmol min/lt and the ALT (10.00 mg/kg p.o.) was 590.22 ± 50.98 μmol min/lt. The AST (10.00 mg/kg p.o.) was 536.39 ± 44.13 μmol min/lt.
